Results: patent US6680025B2, “Device and method for photoactivation” (Cerus Corporation, priority 1989, dated 2004)

Legend:
E. coli DNA Polymerase = assay: Primer extension on monoadducted 71-mer, E. coli DNA polymerase; assay type: biochemical; settings: 37° C., 0, 5 or 15 minutes
Reverse Transcriptase = assay: Primer extension on monoadducted 71-mer, reverse transcriptase; assay type: biochemical; settings: 37° C., 0, 5 or 15 minutes
Taq I DNA polymerase = assay: Primer extension on site-specific monoadducted 71-mer, Taq polymerase; assay type: biochemical, Thermus aquaticus; settings: for Taq polymerase extension on 71-mer monoadduct template: 55° C., single extension
Protocol: In this experiment, monoadducted 71-mers (as well as unmodified 71-mers) were used in template-dependent enzymatic extension. AMIP, AMDMIP, and MIP 71-mer monoadducts were made as in Example 42. Extension was carried out as in Example 43 except that in this experiment, Taq I DNA polymerase, a thermostable DNA polymerase isolated from Thermus aquaticus (Stratagene, Inc., La Jolla, Calif.) was assessed for its ability to read past isopsoralens.
The reaction mixture was in 80 μl total volume and comprised 1×Taq buffer, 200 μM each of dNTP's, 0.05 units of Taq per μl of reaction volume; 1×10^−9 M in 71-mer MA; 1×10^−8 M in ^32P-labelled SK-39. Each reaction was set up with everything except Taq polymerase. The samples were initially heated to 95° C. for 5 mins, then incubated at 55° C. for 3 mins. The extension reaction was initiated by addition of Tas polymerase. At the indicated time points (0.5, 1.0, 5.0 mins), 20 μl of the reaction mix was removed to a tube containing 1 μl of 0.5 M EDTA to stop the reaction. All products were analyzed on a 20% polyacrylamide, 7 M urea gel followed by autoradiography.
This experiment investigated whether blocking of Tag polymerase by monoadducts is complete or whether monoadducts can be bypassed by the enzyme. In order to view the process of bypass syrthesis, it is necessary to cycle the extension reaction of the primer with the 71-mer templates. Cycling in this case consists of mixing the primer with the 71-mer template, adding Taq polymerase and appropriate reagents, extending, heating to induce strand separation, reannealing of the primer to the 71-mer template, extending again, and subsequent stand separation. This process can be repeated as necessary. During this process, only the complement of the 71-mer template is being synthesized. It is accumulating in a linear fashion with the number of thermal cycles (in contrast to PCR where both strands are being synthesized and accumulate geometrically).
The templates and reaction conditions were as in Example 44 above except that three samples were used for each monoadduct and each sample was tested under different conditions:
Samples (1): one sample for each monoadduct was used to carry out extension at 55° C. as in Example 43;
Samples (2): one sample for each monoadduct was used to carry out extension by the following series of steps: denaturing at 95° C.; incubating for 30 seconds at 55° C.; adding Taq polymerase for 3 minutes at 55° C.; cooling the reaction for 1 minute at 7° C.; stopping the reaction with EDTA for one minute at 95° C.
Samples (3): one sample for each monoadduct was used to carry out extension by repeating the following series of steps nine times: denaturing at 95° C.; incubating for 30 seconds at 55° C.; adding Taq polymerase for 3 minutes at 55° C.; cooling the reaction for 1 minute at 7° C. At the end, the reaction is stopped with EDTA for one minute at 95° C.
To investigate this question further, a new 5-MIP monoadducted 71-mer was prepared by repurification of the HPLC purified 5-MIP ronoadducted 15-mer by PAGE. In this way, more of the non-monoadducted 15-mer was removed prior to ligation. The purified 71-mer was then used as template in an extension experiment as described in Example 45. After 10 cycles, there was still evidence of extension product (FIG. 34).
Monoadducted 71-mer was constructed as described, but for HMT. Extension was carried out and analyzed as before on PAGE. […] Full length 71-mer is not made and a shorter strand corresponding to the position of the HMT adduct was made.

Taq polymerase = Taq polymerase (Thermus aquaticus, UniProt P19821); assay: Taq primer extension of 71-mer after random addition of compound or photoproduct; assay type: biochemical; settings: for extension of 71-mer irradiated with compound: AMIP 200 μg/ml, AMDMIP 200 μg/ml, irradiated 15 minutes CE-I at 25° C.
Sequence of Taq polymerase (P19821 whole entry): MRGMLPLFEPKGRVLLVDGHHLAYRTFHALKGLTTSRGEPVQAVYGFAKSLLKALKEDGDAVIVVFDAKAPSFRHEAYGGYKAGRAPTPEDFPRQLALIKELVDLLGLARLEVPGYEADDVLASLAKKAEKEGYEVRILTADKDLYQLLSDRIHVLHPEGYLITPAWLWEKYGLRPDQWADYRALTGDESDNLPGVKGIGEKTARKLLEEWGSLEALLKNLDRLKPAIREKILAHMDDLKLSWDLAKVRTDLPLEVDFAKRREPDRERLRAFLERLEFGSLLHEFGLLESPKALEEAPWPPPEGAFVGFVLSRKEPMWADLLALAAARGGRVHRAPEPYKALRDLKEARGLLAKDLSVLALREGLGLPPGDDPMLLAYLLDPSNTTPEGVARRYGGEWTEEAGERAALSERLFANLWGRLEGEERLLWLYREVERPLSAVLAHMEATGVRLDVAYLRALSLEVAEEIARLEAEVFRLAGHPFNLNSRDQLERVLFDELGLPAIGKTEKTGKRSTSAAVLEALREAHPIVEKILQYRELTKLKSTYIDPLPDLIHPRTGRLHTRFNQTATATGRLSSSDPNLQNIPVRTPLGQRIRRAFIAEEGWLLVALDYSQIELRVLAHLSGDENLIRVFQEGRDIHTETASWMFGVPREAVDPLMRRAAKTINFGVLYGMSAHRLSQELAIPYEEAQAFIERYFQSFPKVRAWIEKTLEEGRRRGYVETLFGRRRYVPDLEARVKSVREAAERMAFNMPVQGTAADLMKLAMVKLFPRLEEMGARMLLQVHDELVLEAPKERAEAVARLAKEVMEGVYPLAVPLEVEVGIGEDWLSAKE
Source text: In this experiment, the ability of AMIP, AMDMIP and MIF to block replication of 71-mer is investigated by randomly adding each compound to the 71-mer. Of course, addition may only be random in the sense that one or more adducts may be formed with any one strand of nucleic acid. The actual placement of the isopsoralen may be governed by preferential binding at particular sites (e.g. A:T). In addition to blockage by random adducts, photoproducts of the various isopsoralens may be providing an inhibitory effect. No attempt to separate the effects of photoproduct from the effects of covalent adducts on the 71-mer template was made in this series of experiments.
In these experiments, the 71-mer template (10^−9 M) was primed with ^32P-SK-39 (10^−8) and extended with Taq polymerase in a total volume of […]. The dNTP concentration was 200 μM. In the control samples, the 71-mer, the primer, and the dNTPs were mixed in Taq buffer in a volume of 18 p1. These samples were initially denatured at 95° C. for 5 minutes, followed by equilibration at 55° C. for 3 minutes. Taq enzyme was then added (0.5 units) and the extension reaction was carried out for 5 minutes at 55° C. The reaction was stopped by making the solution 10 mM in EDTA. In another set of samples, the 71-mer in 10 μl was mixed with either AMIP (200 μg/ml), AMDMIP (200 μg/ml), or MIP (60 μg/ml). Half of these samples were irradiated for 15 minutes on the CE-I device at 25° C. The other half was kept in the dark as controls. These samples were then mixed with the primer and dNTPs as before, and were subjected to the same thermal profile and extension reactions as the samples that were described earlier. The results were examined by PAGE. The extended product bands were identified by autoradiography, excised and counted (data not shown). […]
71-mer was made up in Taq buffer. Samples were prepared as follows: 1) dark control samples were not subjected to activating light; 2) 10 μl samples of the 71-mer (2×10^−9 M) were irradiated in the presence of 200 μg/ml AMDMIP, and 3) 10 μl samples of a 200 μg/ml solution of AMDMIP were irradiated in the absence of the 71-mer target. All irradiations were carried out with the CE-I device at 25° C. After preparing the above samples, unirradiated AMDMIP was added to one set of the dark control samples. Another set of dark controls received irradiated AMDMIP. ^32P-SK-39 primer and dNTPs were then added to all samples and the volume was adjusted to 18 μl. These samples were denatured at 95° C. for 5 minutes, followed by equilibration at 55° C. for 3 minutes. Taq polymerase was then added and the extension reaction was carried out for 5 minutes. The reaction was stopped by bringing the samples to 10 mM in EDTA. The final concentrations of all reagents during the extension reactions were: […]

[1] = PAGE-repurified monoadducted 71-mer, after 10 cycles

Row | SMILES | block of primer extension by 71-mer monoadduct (E. coli DNA Polymerase) | block of primer extension by 71-mer monoadduct (Reverse Transcriptase) | Taq polymerase extension on 71-mer monoadduct template (Taq I DNA polymerase) | extension of 71-mer irradiated with compound (Taq polymerase; MIP 60 μg/ml) | full length extension product as share of total extension products (Taq I DNA polymerase; [1]) [%] | truncated extension products as share of total (Taq I DNA polymerase; [1]) [%] | amount of full length product versus control samples (Taq polymerase; MIP 60 μg/ml, irradiated 15 minutes CE-I) | extension of 71-mer irradiated in the presence of AMDMIP (Taq polymerase; 200 μg/ml during irradiation, CE-I at 25° C.) | extension of 71-mer, dark control with unirradiated AMDMIP (Taq polymerase; AMDMIP 100 μg/ml final)
1 | NCc1cc2occc2c2oc(=O)ccc12 [AMIP, 5-Aminomethylisopsoralen] | not complete stops | complete stops | stops at positions that are shorter than the full length 71-mer product | not extended at all |  |  |  |  | 
2 | Cc1cc2occc2c2oc(=O)ccc12 [MIP, 5-Methylisopsoralen] | not complete stops | complete stops | stops at positions that are shorter than the full length 71-mer product | some full length extension product and a minor truncated product | 2.3 | 97.7 | half of that observed with the control samples |  | 
3 | Cc1oc2ccc3c(C)cc(=O)oc3c2c1CN [AMDMIP, 4′-Aminomethyl-4,5′-dimethylisopsoralen] | complete stop | complete stop | stops at positions that are shorter than the full length 71-mer product | not extended at all |  |  |  | no extension products at all | full length extension product
